Data on two molecules can be found in patent US20200254065A1, “LONG-ACTING GLP-2 ANALOGS” (OPKO Biologics Ltd., priority 2019, published 2020).

Series [1] can be described thus: Stability of GLP-2 analogues on incubation at 37° C. (appearance, O.D. reading, RP-HPLC). The format is physicochemical. The settings on record: following 48 h incubation at 37° C. On the procedure: The GLP-2 analogues were tested for stability via appearance, O.D. reading (A.280, and A.325) and RP-HPLC (purity, and peak area) following t=0, 1 day, and 48 h incubation at 37° C.

In series [2] the target is T1, GLP-2 receptor (Homo sapiens, UniProt O95838).
T1 sequence (O95838 1-553): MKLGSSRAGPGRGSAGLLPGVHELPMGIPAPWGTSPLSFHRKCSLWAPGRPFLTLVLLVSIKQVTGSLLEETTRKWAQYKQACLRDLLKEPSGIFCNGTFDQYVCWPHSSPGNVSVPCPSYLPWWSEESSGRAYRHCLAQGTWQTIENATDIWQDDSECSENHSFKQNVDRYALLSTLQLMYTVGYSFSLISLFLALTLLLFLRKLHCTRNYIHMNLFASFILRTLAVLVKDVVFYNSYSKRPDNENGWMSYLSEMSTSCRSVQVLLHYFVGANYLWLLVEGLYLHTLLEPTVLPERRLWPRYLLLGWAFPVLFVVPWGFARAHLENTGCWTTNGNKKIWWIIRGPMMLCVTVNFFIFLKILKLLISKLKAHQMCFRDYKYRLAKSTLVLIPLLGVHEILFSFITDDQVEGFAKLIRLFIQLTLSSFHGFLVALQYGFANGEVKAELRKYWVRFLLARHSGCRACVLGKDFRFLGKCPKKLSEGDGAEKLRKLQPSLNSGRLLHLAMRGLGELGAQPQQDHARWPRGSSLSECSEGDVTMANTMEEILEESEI
Briefly: GLP-2 receptor Cell Based Assay (CBA). The note with it: EC50 (nM) Average, average of 3 independent CBA; different GLP-2R Assay Kit lot (Table 8).
Protocol: Evaluation of in vitro binding affinity of the different peptides was assessed by using Cell Based Assay (CBA) in the presence of escalating doses of the different peptides.

Series [3] can be described thus: PK after single SC injection in rats (LC-MS/MS). The settings on record: rat, in vivo, 2 mg/kg. On the procedure:
To support the pharmacodynamic effects of V4 and Cys-FMS-V4 as detailed in Example 9, a pharmacokinetic analysis was also conducted. In this study (Study reference 15204), all animals were injected SC on Day 1 with 2 mg/kg peptide content of V4, Cys-FMS-V4 and Apraglutide. Blood samples were collected at 2, 8, 12, 24, 36, 48, 72, 96, 120 hours, and Days 7, 8, 9, 10, 11, 12, 13 and 14 post-dose administration and subsequently taken to LC-MS/MS analysis to determine plasma levels of each compound. For Cys-FMS-V4, a 2-analyte method was applied to determine the plasma concentrations of both the full conjugate and the V4 that was hydrolyzed from it (V4 hydrolyzed). Plasma concentrations (μM), as measured by using the LC-MS/MS method, of V4 peptide, Cys-FMS-V4, hydrolyzed V4, and Apraglutide are presented in FIG. 17.

The conditions of series [4]: Apraglutide, as previously reported, cited from earlier work.
A short description of series [5]: 2-compartmental pharmacokinetic modelling (MONOLIX 2018R2). The format is in vivo, rat. The note with it: rat, in vivo. On the procedure: An in-depth PK modeling was performed to address the unexpected differences in half life, distribution, and pharmacological effect between V4, Cys-FMS-V4, and Apraglutide in the rat model. The analysis was performed with MONOLIX 2018R2 suite using a 2-compartmental pharmacokinetic model. The data used in this analysis was comprised from 3 independent experiments (data is presented as their average). The concentration versus time data of V4 that was formed from the Cys-FMS-V4 conjugate (the hydrolyzed peptide) was described appropriately using the values of the pharmacokinetic parameters of V4 peptide. Thus, the disposition of the hydrolyzed V4 was identical to that of the V4 peptide following the IV and SC administration.
The pharmacokinetics of Apraglutide in our studies was determined after SC administration. […] Based on this assumption, the values of volumes of distribution and clearance (Vpept, Vss, Vbeta, and CL) were calculated for Apraglutide (Table 13). The values of the other parameters of Apraglutide in Table 14 (the rate constants and the half-lives) are not dependent on this assumption.

For series [6] the following is noted: circulating native GLP-2; in humans; cited from earlier work.

Square brackets hold non-standard residues; d marks the D form. Peptide text beside a SMILES is read from it. Nle = CCCC[C@H](N)C(=O)O

As usually defined, the EC50 is the concentration needed to bring the measured effect to its halfway point. Low readings indicate greater potency, high ones weaker potency. The term AUC(0-inf) denotes the area under the concentration-time curve extrapolated to infinity. Broadly, the AUC(0-t) is exposure summed from dosing to a finite time, without extrapolation to infinity. By CL/F is commonly meant clearance divided by bioavailability, as obtained after extravascular dosing. What is called Cmax is the peak of the concentration-time curve. The term Tmax denotes the time at which the peak concentration occurs. In general, Vd/F refers to the apparent distribution volume after extravascular dosing. As usually defined, the half-life is how long it takes for the measured level to halve. Read a low half-life as fast loss. Take `CCCC[C@H](NC(=O)[C@H](CCC(=O)O)NC(=O)[C@H](CC(=O)O)NC(=O)[C@H](CO)NC(=O)[C@H](Cc1ccccc1)NC(=O)[C@H](CO)NC(=O)CNC(=O)[C@H](CC(=O)O)NC(=O)CNC(=O)[C@@H](N)Cc1cnc[nH]1)C(=O)N[C@H](Cc1ccccc1)C(=O)N[C@H](C(=O)N[C@H](C(=O)N[C@@H](CC(C)C)C(=O)N[C@@H](CC(=O)O)C(=O)N[C@@H](CC(C)C)C(=O)N[C@@H](CC(C)C)C(=O)N[C@@H](C)C(=O)N[C@@H](C)C(=O)N[C@@H](CCCNC(=N)N)C(=O)N[C@@H](CC(=O)O)C(=O)N[C@@H](Cc1ccccc1)C(=O)N[C@H](C(=O)N[C@@H](CC(N)=O)C(=O)N[C@@H](Cc1c[nH]c2ccccc12)C(=O)N[C@@H](CC(C)C)C(=O)N[C@H](C(=O)N[C@@H](CCC(N)=O)C(=O)N[C@H](C(=O)N[C@@H](CCCCN)C(=O)N[C@H](C(=O)N[C@H](C(=O)N[C@@H](CC(=O)O)C(N)=O)[C@@H](C)O)[C@@H](C)CC)[C@@H](C)O)[C@@H](C)CC)[C@@H](C)CC)[C@@H](C)CC)[C@@H](C)O` [Variant 1, reference compound] (H-HGDGSFSDE[Nle][dF]TILDLLAARDFINWLIQTKITD-NH2): in series [1], the Solubility via appearance entry is recorded as “V1: opaque”. Further, the “Stability via RP-HPLC main peak” value in series [1] (change of main peak) was “V1: −20%”. For the same molecule, in series [2], the EC50 is 1.7 nM. In series [3], this molecule gave an AUC(0-inf) of 29.4 µM·h, an AUC(0-t) of 29.2 µM·h, a CL/F of 0.3 mL/min/kg and a Cmax of 1950 nM. In addition, in series [3], the “Time post injection up to which detectable in blood” value was at most 120 h, the Tmax is 8 h, the Vd/F came to 0.38 L/kg and the half-life was 14.5 h. Also, in series [4] (assumed absolute SC bioavailability in rats), the Fpept is given as 0.74. In series [4] (assumed), the “Absolute bioavailability following SC administration in rats” value is listed as 74%. In addition, in series [5], the k12 is 0.0065 h⁻¹, the k21 amounted to 0.0068 h⁻¹, the “ka—pept” value worked out at 0.1661 h⁻¹ and the kpepte worked out at 0.0855 h⁻¹. Besides, in series [5] (sc), the CL worked out at 0.222 mL/min/kg, the Vd turned out to be 2.12 L/kg, the Vpept stood at 0.156 L/kg and the Vss was determined as 0.303 L/kg. In addition, the half-life in series [5] (sc, t1/2 absorption) was 4.17 h. For the same molecule, the half-life in series [5] (t1/2 alpha) is 7.5 h. Also, the half-life in series [5] (t1/2 beta) was 110 h.

As to “NH2-HADGSFSDEMNTILDNLAARDFINWLIQTKITD-COOH [native GLP-2]”, the “Biological (in vivo) half-life” value in series [6] is listed as “approximately 7 minutes”.
